Test results: ChEMBL document CHEMBL3992552, “Mechanisms of action and structure-activity relationships of cytotoxic flavokawain derivatives” (Bioorg Med Chem, 2017)
Calls of active or inactive are those of the source. No cut-off for these calls is given here.

Legend:
NCI-H727 [1] = experiment: Cell cycle arrest in human NCI-H727 cells harboring p53 mutant assessed as accumulation at S phase at 25 uM measured after 48 hrs by Hoechst/BrdU staining based fluorescence assay (reference value: 40.3%); type: functional
MCF7 [2] = experiment: Induction of apoptosis in human MCF7 cells harboring wild-type p53 assessed as upregulation of p21 measured after 48 hrs by Hoechst staining based fluorescence assay; type: functional, cell-based
Caco-2 [3] = experiment: Cell cycle arrest in human Caco2 cells assessed as accumulation at S phase at 10 uM measured after 48 hrs by Hoechst/BrdU staining based fluorescence assay (reference value: […]); type: functional
HCT-116 [4] = experiment: Induction of apoptosis in human HCT116 cells harboring wild-type p53 assessed as upregulation of p21 measured after 48 hrs by Hoechst staining based fluorescence assay; type: functional, cell-based
HaCaT [5] = experiment: Cell cycle arrest in human HaCaT cells assessed as accumulation at M phase by Hoechst staining based fluorescence assay; type: functional
HCT-116 [6] = experiment: Induction of apoptosis in human HCT116 cells harboring wild-type p53 assessed as increase in late apoptosis at 2 times IC50 after 48 hrs by YoPro/propidium iodide/Hoechst staining based assay; type: functional, cell-based
MDA-MB-231 [7] = experiment: Cell cycle arrest in human MDA-MB-231 cells harboring p53 mutant assessed as accumulation at S phase at 10 uM measured after 48 hrs by Hoechst/BrdU staining based fluorescence assay (reference value: 42.2%); type: functional
HCT-116 [8] = experiment: Cell cycle arrest in human HCT116 cells harboring wild-type p53 assessed as mitotic index at 25 uM measured after 48 hrs by Hoechst staining based fluorescence assay (reference value: 2.3); type: functional
HCT-116 [9] = experiment: Induction of apoptosis in human HCT116 cells harboring wild-type p53 assessed as increase in cleaved caspase3 at 2 times IC50 after 48 hrs by Hoechst staining based assay; type: functional, cell-based
HCT-116 [10] = experiment: Induction of apoptosis in human HCT116 cells harboring wild-type p53 assessed as increase in early apoptosis at 2 times IC50 after 48 hrs by YoPro/propidium iodide/Hoechst staining based assay; type: functional, cell-based
[11] = Selectivity index, ratio of IC50 for human fibroblasts to IC50 for human HCT116 cells
HaCaT [12] = experiment: Cytotoxicity against human HaCaT cells assessed as cell survival at 50 uM after 48 hrs by Hoechst 33342 staining based assay relative to control; type: functional; conditions: read-out: Survival
MDA-MB-231 [13] = experiment: Induction of apoptosis in human MDA-MB-231 cells harboring p53 mutant assessed as increase in early apoptosis at 2 times IC50 after 24 hrs by YoPro/propidium iodide/Hoechst staining based assay; type: functional, cell-based
MDA-MB-231 [14] = experiment: Cell cycle arrest in human MDA-MB-231 cells harboring p53 mutant assessed as mitotic index at 25 uM measured after 48 hrs by Hoechst staining based fluorescence assay (reference value: 2.1); type: functional
PC-3 [15] = experiment: Cell cycle arrest in human PC3 cells assessed as accumulation at M phase by Hoechst staining based fluorescence assay; type: functional
[16] = Cytotoxicity against human fibroblasts assessed as cell survival at 50 uM after 48 hrs by Hoechst 33342 staining based assay relative to control; set-up: species or system Fibroblast; conditions: read-out: Survival
HaCaT [17] = experiment: Cell cycle arrest in human HaCaT cells harboring […] p53 assessed as mitotic index at 25 uM measured after 48 hrs by Hoechst staining based fluorescence assay (reference value: 2.6); type: functional
HaCaT [18] = experiment: Cell cycle arrest in human HaCaT cells harboring […] p53 assessed as mitotic index at 10 uM measured after 48 hrs by Hoechst staining based fluorescence assay (reference value: 2.6); type: functional
NCI-H727 [19] = experiment: Cell cycle arrest in human NCI-H727 cells harboring p53 mutant assessed as mitotic index at 25 uM measured after 48 hrs by Hoechst staining based fluorescence assay (reference value: 1.1); type: functional
NCI-H727 [20] = experiment: Cytotoxicity against human NCI-H727 cells assessed as cell survival at 50 uM after 48 hrs by Hoechst 33342 staining based assay relative to control; type: functional; conditions: NCI-H727, 48 h, read-out: Survival
MCF7 [21] = experiment: Induction of apoptosis in human MCF7 cells harboring wild-type p53 assessed as upregulation of cyclinB1 measured after 18 hrs by Hoechst staining based assay; type: functional, cell-based
PC-3 [22] = experiment: Cell cycle arrest in human PC3 cells harboring p53 mutant assessed as accumulation at S phase at 10 uM measured after 48 hrs by Hoechst/BrdU staining based fluorescence assay (reference value: 40.8%); type: functional
PC-3 [23] = experiment: Induction of apoptosis in human PC3 cells harboring p53 mutant assessed as increase in early apoptosis at 2 times IC50 after 48 hrs by YoPro/propidium iodide/Hoechst staining based assay; type: functional, cell-based
MCF7 [24] = experiment: Cytotoxicity against human MCF7 assessed as cell viability after 48 hrs by Hoechst 33342 staining based assay; type: functional; conditions: MCF7, 48 h
RL = experiment: Cytotoxicity against human RL assessed as cell viability after 48 hrs by Hoechst 33342 staining based assay; type: functional
HCT-116 [25] = experiment: Cell cycle arrest in human HCT116 cells harboring wild-type p53 assessed as accumulation at S phase at 25 uM measured after 48 hrs by Hoechst/BrdU staining based fluorescence assay (reference value: 68.4%); type: functional
MDA-MB-231 [26] = experiment: Cell cycle arrest in human MDA-MB-231 cells harboring p53 mutant assessed as accumulation at S phase at 25 uM measured after 48 hrs by Hoechst/BrdU staining based fluorescence assay (reference value: 42.2%); type: functional
HCT-116 [27] = experiment: Cell cycle arrest in human HCT116 cells harboring wild-type p53 assessed as mitotic index at 10 uM measured after 48 hrs by Hoechst staining based fluorescence assay (reference value: 2.3); type: functional
[28] = Selectivity index, ratio of IC50 for human fibroblasts to IC50 for human MCF7 cells
Caco-2 [29] = experiment: Cell cycle arrest in human Caco2 cells assessed as mitotic index at 25 uM measured after 48 hrs by Hoechst staining based fluorescence assay (reference value: 3.6); type: functional
NCI-H727 [30] = experiment: Cell cycle arrest in human NCI-H727 cells harboring p53 mutant assessed as accumulation at S phase at 10 uM measured after 48 hrs by Hoechst/BrdU staining based fluorescence assay (reference value: 40.3%); type: functional
PC-3 [31] = experiment: Induction of apoptosis in human PC3 cells harboring p53 mutant assessed as increase in late apoptosis at 2 times IC50 after 48 hrs by YoPro/propidium iodide/Hoechst staining based assay; type: functional, cell-based
MDA-MB-231 [32] = experiment: Cell cycle arrest in human MDA-MB-231 cells assessed as accumulation at M phase by Hoechst staining based fluorescence assay; type: functional
Huh-7 = experiment: Cell cycle arrest in human HuH7 cells assessed as accumulation at S phase at 25 uM measured after 48 hrs by Hoechst/BrdU staining based fluorescence assay (reference value: 44%); type: functional
HCT-116 [33] = experiment: Cell cycle arrest in human HCT116 cells harboring wild-type p53 assessed as accumulation at S phase at 10 uM measured after 48 hrs by Hoechst/BrdU staining based fluorescence assay (reference value: 68.4%); type: functional
MCF7 [34] = experiment: Induction of apoptosis in human MCF7 cells harboring wild-type p53 assessed as increase in early apoptosis at 2 times IC50 after 24 hrs by YoPro/propidium iodide/Hoechst staining based assay; type: functional, cell-based
MDA-MB-231 [35] = experiment: Cytotoxicity against human MDA-MB-231 cells assessed as cell viability after 48 hrs by Hoechst 33342 staining based assay; type: functional; conditions: MDA-MB-231, 48 h

Row | SMILES | Activity (NCI-H727 [1]) [%] | Activity (MCF7 [2]) | Activity (Caco-2 [3]) [%] | Activity (HCT-116 [4]) | Activity (HaCaT [5]) | Activity (HCT-116 [6]) | Activity (MDA-MB-231 [7]) | Activity_index (HCT-116 [8]) | Activity (HCT-116 [9]) | Activity (HCT-116 [10]) | Ratio IC50 [11] | viability at 50 µM (HaCaT [12]) [%] | Activity (PC-3 [15]) | viability at 48 h, 50 µM [16] [%] | Activity_index (HaCaT [17]) | Activity_index (HaCaT [18]) | Activity_index (NCI-H727 [19]) | viability at 50 µM (NCI-H727 [20]) [%] | Activity (MCF7 [21]) | Activity (PC-3 [22]) [%] | other results
1 | COc1cccc(/C=C/C(=O)c2c(OC)cc(OC)cc2OC)c1 | 5.1 | Active | 31 | Active | Active | Active | 43% | 1.2 | Active | Active | >11.6 | 18 | Active | 66 | 0.1 | 17.5 | 0.1 | 1 | Active | 23 | Activity (MDA-MB-231 [13]): Active; Activity_index (MDA-MB-231 [14]): 3.5; Activity (PC-3 [23]): Active; IC50 (MCF7 [24]): 9.4 µM; IC50 (RL): 5.9 µM; Activity (HCT-116 [25]): 0.6%; Activity (MDA-MB-231 [26]): 12%; Activity_index (HCT-116 [27]): 4.5; Ratio IC50 [28]: >5.3; Activity_index (Caco-2 [29]): 4.8; Activity (NCI-H727 [30]): 37%; Activity (PC-3 [31]): Active; Activity (MDA-MB-231 [32]): Active; Activity (Huh-7): 0.3%; Activity (HCT-116 [33]): 20%; Activity (MCF7 [34]): Active; IC50 (MDA-MB-231 [35]): 8.7 µM
2 | COc1cc(O)c(C(=O)/C=C/c2ccccc2OC)c(OC)c1 | 14 | Active | 46 | Active | Active | Active | inactive | 1.8 | Active | Active | 4 | 30 | Active | 71 | 8.4 | 3.1 | 0.5 | 11 | Active | 36 | Activity (MDA-MB-231 [14]): inactive; Activity (PC-3 [23]): Active; IC50 (MCF7 [24]): 10.5 µM; IC50 (RL): 10.1 µM; Activity (HCT-116 [25]): 27%; Activity (MDA-MB-231 [26]): inactive; Activity_index (HCT-116 [27]): 1.2; Ratio IC50 [28]: 3.5; Activity_index (Caco-2 [29]): 21.5; Activity (NCI-H727 [30]): 43%; Activity (PC-3 [31]): Active; Activity (Huh-7): inactive; Activity (HCT-116 [33]): 42%; Activity (MCF7 [34]): Active; IC50 (MDA-MB-231 [35]): > 20 µM
3 | COc1cc(O)c(C(=O)/C=C/c2ccccc2SC)c(OC)c1 | 12 | Active | 50 | Active | Active | Active | inactive | 1.3 | Active | Active | 3.6 | 22 | Active | 65 | 7.8 | 3.1 | 0.4 | 8 | Active | 35 | Activity (MDA-MB-231 [14]): inactive; Activity (PC-3 [23]): Active; IC50 (MCF7 [24]): 15.9 µM; IC50 (RL): 8.9 µM; Activity (HCT-116 [25]): 28%; Activity (MDA-MB-231 [26]): inactive; Activity_index (HCT-116 [27]): 0.8; Ratio IC50 [28]: 2.3; Activity_index (Caco-2 [29]): 21.9; Activity (NCI-H727 [30]): 43%; Activity (PC-3 [31]): Active; Activity (Huh-7): 37%; Activity (HCT-116 [33]): 52%; Activity (MCF7 [34]): Active; IC50 (MDA-MB-231 [35]): > 20 µM
